Measured values published in patent EP1228058B1, “BENZOPYRANYL GUANIDINE DERIVATIVES, PROCESS FOR PREPARATION THEREOF, AND PHARMACEUTICAL COMPOSITIONS CONTAINING THEM” (Dongbu Hannong Chemical Co., Ltd., priority 1999, dated 2001).

Assays:
[1] = system: ischemic heart models of rats; experiment: Heart protective (anti-ischemic) activity in ischemic heart models of anesthetized rats; assay type: in vivo; settings: 45 min occlusion, 90 min reperfusion
Protocol: Male rats (350-450 g, obtained from the Experimental Animal Team of the Korea Research Institute of Chemical Technology) were anesthetized by the intraperitoneal injection of pentobarbital at a dose of 75 mg/kg. After trachetomy, the rats were rendered to respire artificially at a rate of 60/min with a stroke volume of 10 ml/kg. Cannulars were inserted into the fermoral vein and the fermoral artery and used for drug administration and blood pressure measurement, respectively.
In the ischemic myocardium damage models, the body temperature has an important influence on the results. To avoid the change in the body temperature, a body temperature measuring probe was inserted into the rectum of each rat and the body temperature was constantly kept at 37 °C with the aid of a homeothermic blanket control unit.
Afterwards, during testing, a continuous measurement was made of the mean arterial blood pressures and heart rates from the rats. For the measurement of the blood pressure, a pressure transducer, such as that manufactured by Grass Ins., MA, U.S.A., identified as Model Statham P23XL, was used. The heart rate was measured by a tachometer, such as that manufactured by Gould Inc., OH, U.S.A., identified as Biotachometer. In addition, all of the changes occurring were continuously recorded through the Gould 2000 chart recorder, manufactured by Gould Inc.
The left coronary artery was occluded according to the Selye H. method as follows. The rats underwent a left thoracotomy operation for partial opening of the chest and the right-side chest was pressurized by the middle finger of the left hand to push the heart out. Immediately after the left anterior descending coronary artery hereinafter referred to as (LAD) was carefully stitched using a suture needle with 5-0 silk ligature, the heart was then repositioned in the thoracic cavity while both ends of the ligature were situated outside. The opposite ligature ends were passed through a PE tube (PE100, 2.5 cm) and allowed to stand loose for 20 min for stabilization. Via the cannula inserted into the femoral vein, vehicles or drugs were administered into the rats which were rendered to stand for 30 min in order to sufficiently elicit the efficacies of the drugs. BMS-180448 was used as a control drug and the i.v.administration dose was 0.3 mg/kg for all test drugs of interest and the control drug.
Next, the PE tube which had the doubled strands of the ligature passed therethrough was pushed toward the heart and then, set upright by tightly pulling end regions of the ligature with a hemostatic pincette while pressing the coronary artery. The PE tube was allowed to stand for 45 min for the occlusion of the coronary artery, followed by the removal of the hemostatic pincette and then, by the reperfusion for 90 min.
After the reocclusion of the coronary artery in accordance with the above procedure, the rats were administered with 2 ml of a 1% Evans blue through an intravenous route. Subsequently, an excess of pentobarbital was intravenously injected to kill the rats, after which the heart was removed and then, deprived of the right ventricle and both atria. The left ventricle was cut horizontally to the heart apex into 5 or 6 slices which were weighed. From the surface of each slice, images were input with the aid of a Hi-scope into a computer installed with an image analyzing program (Image Pro Plus). From the images input into the computer, the area of the normal blood stream tissue region which appeared blue in a computer monitor and the area which appeared colorless were measured. The percentage of the colorless area to the total area of each slice was calculated and multiplied by the weight of each slice to determine the area at risk (AAR) of each slice. […]

[2] = Acute oral toxicity test in rats; settings: rat, in vivo, single oral dose in 0.5% methyl cellulose, read-out: lethal dose (LD50) for oral administration
Procedure, shortened: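 Six-week-old SPF SD rats, two per group, received a single oral dose of 1 g/kg suspended in 0.5% methyl cellulose (10 ml/kg). Survivors at the end of observation underwent haematology, serum chemistry, necropsy and histopathology of vital organs with macroscopic lesions.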

rat aorta = experiment: Vasodilation effects on isolated blood vessels of rats (methoxamine-constricted aortic rings); assay type: cell-based; settings: isolated rat aorta constricted with methoxamine (3 uM); read-out: Vasodilation Activity (in Vitro, rat aorta) (IC50)
From the text: Male Sprague-Dawly rats (350-450 g, obtained from the Experimental Animal Team of the Korea Research Institute of Chemical Technology) were knocked unconscious by hitting the occipital region, sacrificed by cervical dislocation, and underwent thoracotomy. After being quickly removed, the thoracic aorta was deprived of the adipose tissue and cut into aortic rings of 3 mm width. The aorta was lightly rubbed with a modified Krebs Henseleit buffer (Physiological Salt Solution, PSS) soaked cotton club to remove the inner epithelial layer therefrom. While being suspended in an organ bath containing a physiological buffer, the vascular tissue was allowed to equilibrate under a resting tension of 2 g and then, stand for 1 hour at 37 °C for stabilization with a supply of a carbogen consisting of 95% O2-5% CO2.
Thereafter, the vascular tissue was constricted with 10^-5 M phenylephrine and washed several times with PSS and this procedure was repeated again to ensure the stable reacivity of vascular smooth muscle to repetitive constriction/dilatation.
In addition, 3x10^-6 M methoxamine was used to induce an intensive constriction in the vascular smooth muscle. When the vasoconstriction induced by the methoxamine reached and maintained a maximum, test compounds and controls were cumulatively added to the organ baths in concentrations of 1, 3, 10 and 30 uM so as to induce vasodilatation. As for the controls, they were Cromakalim and BMS-180448 (the compounds of the chemical formula 2), both known to be the first generation KATP activator with potent vasodilatation and cardioprotection effects.
Following the addition of the drugs, the change in the maximal constriction induced by methoxamine was calculated to plot a concentration-dilation response curve. Through a linear regression analysis, IC50, the drug concentration at which the vascular tissue is 50% dilated, was obtained for each drug.

A7r5 [3] = experiment: Inhibition of intracellular ROS induced by H2O2 (H2DCFDA) in A7r5; assay type: cell-based; settings: Rattus norvegicus
Protocol: (§1) Measurement of intracellular ROS (Reactive Oxygen Species) was determined using H2DCFDA (2',7'-dichlorodihydrofluorescein diacetate, Molecular Probes, Eugene, OR, USA). H2DCFDA is a non-polar compound that readily diffused into cells, where it is hydrolyzed by intracellular esterase to polar derivative H2DCF (2',7'-dichlorodihydrofluorescein) which can not cross the cell membrane, and thereby trapped within the cell. H2DCF is low-fluorescent, but converted to high-fluorescent DCF (2',7'-dichlorofluorescein) by intracellular ROS. Therefore, the intracellular ROS formation can be determined from the amount of converted DCF. HUVEC (Human umbilical Vascular Endothelial Cells) or A7r5 (Rat thoracic aorta smooth muscle cells) were used. HUVEC were cultured in Kaighn's F12K medium supplemented with 10% heat-inactivated FBS, 0.1 mg/ml heparin sodium, 0.03-0.05 mg/ml ECGS (Endothelial cell growth supplement) and 1% antibiotics, and A7r5 were cultured in DMEM supplemented with 10% heat inactivated FBS and 1% antibiotics. To measure the intracellular ROS, HUVEC or A7r5 were preincubated for 30 min in the presence of test compounds (10^-7-10^-5 M). Thereafter, cells were stimulated with H2O2 (10^-6 and 10^-5 M for 20 min), and then incubated in the dark for 2 hr at 37 °C in 50 mM phosphate buffer (pH 7.4) containing 5 uM H2DCFDA. The quantity of DCF fluorescence (485 nm excitation, 530 nm emission) was measured using Fluorescence plate reader (FL600, Biotek Instruments).

[4] = system: angiogenesis induced by Angiotensin II in Sprague-Dawley rats; experiment: Suppression of Angiotensin II induced angiogenesis in implanted sponge (99mTc-DTPA clearance); assay type: in vivo; settings: Control AII (100nmol) alone, no test drug
[5] = ORAC (oxygen-radical absorbance capacity) assay; assay type: biochemical; settings: 1 ORAC unit = net protection by 1 uM Trolox
Protocol: The method utilized β-PE (β-phycoerythrin) as an indicator protein, and AAPH (2,2'-azobis(2-amidinopropane) dihydrochloride) as a peroxy radical generator. Reaction mixtures consisted of test compounds (10^-6M and 10^-4M), β-PE (1.76 x 10^-8M), and AAPH (3 x 10^-3 M) in 75 mM phosphate buffer (pH 7.0). A final volume of 2 ml was used in 24 well plates. Test compounds were first dissolved in acetone and then added to the reaction mixture. Once AAPH was added, the reaction was initiated at 37 °C and the fluorescence (485 nm excitation, 590 nm emission) was measured every 5 min using Fluorescence reader (FL600, Biotek Instrument). The ORAC units were calculated based on the area under the fluorescence curve of β-PE in the presence of the test compound compared to the area generated by 1 uM Trolox. 1 ORAC unit represents the net protection provided by 1 uM Trolox.

HUVEC = experiment: Inhibition of intracellular ROS induced by H2O2 (H2DCFDA) in HUVEC; assay type: cell-based, Human
Protocol: as §1

Human LDL = experiment: Inhibition of copper-induced LDL oxidation (MDA, TBA method); assay type: biochemical; settings: CuSO4 10 uM, 18 hr
Protocol: Human LDL (sigma) was dissolved in distilled water at a concentration of 1 mg/ml. LDL was dialyzed against three changes of phosphate-buffered solution before oxidation to remove EDTA (ethylenediamine tetraacetate) at 4 °C for 18 hr. EDTA-free LDL (100 ug LDL protein/ml) was incubated in EDTA-free phosphate-buffered solution at 37 °C for 18 hr in the presence of CuSO4 (10 uM) under pretreatment with the test compounds or tochopherol of which final concentrations were 10^-9, 10^-7, and 10^-5 M. Blank was incubated without CuSO^., and vehicle was used as a solvent group. Oxidation was stopped at 4 °C by addition of EDTA (200 uM).
Copper (Cu^+2) facilitates the oxidation of LDL to produce malondialdehyde (MDA), thus the lipid peroxidation was determined by MDA quantification same as the above example 5 (1). The MDA quantification was estimated by reacting samples with 2-thiobarbituric acid (TBA) and measuring the absorbance at 530 nm. 1,1,3,3-Tetramethoxy propane (Sigma) was used as a standard agent, and calculated the quantity of MDA as nmol of MDA equivalents per mg protein. The inhibitory effect of the test compounds against the lipid peroxidation was evaluated by calculating MDA reduction rate of the test compounds compared with that of the control group.

A7r5 [6] = experiment: Inhibition of A7r5 mediated LDL oxidation (MDA); assay type: cell-based, rat; settings: for % Inhibition LDL + H2O2 (10^-7M): A7r5 plus H2O2 (10^-7 M); for % Inhibition LDL: A7r5 alone, LDL 100 ug/ml, 24 hr
Protocol: A7r5 (ATCC CRL-1444, smooth muscles, thoracic aorta, BDIX rat) cells were cultured in 24 well plates, using the medium of DMEM (Dulbecco's modified Eagle's Medium) supplemented with 10% heat-inactivated FBS (fetal bovine serum) and 1% antibiotics. Confluent A7r5 from plates were washed with phosphate-buffered solution, and DMEM with 10% FBS and 1% antibiotics was added in a total volume of 0.5 ml/well. Cells (2 x 10^5 cells/ml) were preincubated without and with either test compounds (10^-6 - 10^-4 M) or Tocopherol (10^-6 - 10^-4 M) at 37 °C for 30 min. Then, A7r5 alone or A7r5 plus H2O2 (10^-7 M) were exposed to LDL (100 ug/ml) for 24 hr.
The inhibitory effect of the test compounds against the lipid peroxidation was evaluated by calculating MDA reduction rate of the test compounds compared with that of the control group same as the above example 5 (2).

## COC(OC)[C@@]1(C)Oc2ccc(NC(C)=O)cc2[C@@H](NC(=NC#N)NCc2ccccc2)[C@@H]1O [Example 41]
[1]
  Anti-ischemic Activity (in vivo, rats) (0.3 mg/kg i.v.) IZ/AAR (%): 30.25%
[2]
  LD50: > 1000 mg/kg
Rat aorta
  IC50: > 30 µM

## CC(C)(Sc1cc(C(C)(C)C)c(O)c(C(C)(C)C)c1)Sc1cc(C(C)(C)C)c(O)c(C(C)(C)C)c1 [Probucol, reference compound]
A7r5 [3]; A7r5, Conc. 10^-5 M, read-out: Inhibition (%) H2O2 (10^-6M)
  inhibition at 10 µM: 185%
A7r5 [3]; A7r5, Conc. 10^-6 M
  inhibition at 1 µM: 184%
A7r5 [3]; A7r5, Conc. 10^-7 M, read-out: Inhibition (%) H2O2 (10^-6M)
  inhibition at 0.1 µM: 72%

## Angiotensin II [AII, reference compound]
[4]
  Clearance of ^99mTC (%): 44.71%

## Tocopherol [reference compound]
[5]; Conc. 10^-4 M
  ORAC units: 1.568 ORAC units
[5]; Conc. 10^-6 M
  ORAC units: 1.0 ORAC units
HUVEC; Conc. 10^-5 M
  Inhibition (%) H2O2 (10^-5M): 51.0%
  Inhibition (%) H2O2 (10^-6M): 60.8%
HUVEC; Conc. 10^-6 M
  Inhibition (%) H2O2 (10^-5M): 30.7%
  Inhibition (%) H2O2 (10^-6M): 43.2%
HUVEC; Conc. 10^-7 M
  Inhibition (%) H2O2 (10^-5M): 8.8%
  Inhibition (%) H2O2 (10^-6M): 13.8%
Human LDL; 10^-5 M
  % Inhibition: 29.7%
Human LDL; 10^-7 M, 0.1 µM
  % Inhibition: 21.3%
Human LDL; 10^-9 M, 0.001 µM
  % Inhibition: 18.5%
A7r5 [6]; 10^-4 M
  % Inhibition LDL + H2O2 (10^-7M): 63.9%
A7r5 [6]; 10^-5 M
  % Inhibition LDL: 57.0%
  % Inhibition LDL + H2O2 (10^-7M): 53.0%
A7r5 [6]; 10^-6 M
  % Inhibition LDL: 41.1%
  % Inhibition LDL + H2O2 (10^-7M): 43.2%
